Source: the NIST ThermoML archive (doi:10.1021/je5007407)
Where “and” joins values, the source holds several entries; their conditions need not be identical. Equal entries are not always repeated. ± gives the expanded uncertainty stated by the source.

Test: xn = mol fraction of the nth substance listed
Settings: Gas, Frequency=2 MHz, Pulse-echo method

CCC [propane] + O=C=O
Settings | speed of sound
298.18 K, 100010 kPa, x2 = 0.9376 | 1076.7 ± 1 m/s
298.18 K, 125020 kPa, x2 = 0.9376 | 1162.3 ± 1 m/s
298.18 K, 149960 kPa, x2 = 0.9376 | 1236.7 ± 1.1 m/s
298.18 K, 175000 kPa, x2 = 0.9376 | 1302.7 ± 1.1 m/s
298.18 K, 200100 kPa, x2 = 0.9376 | 1364.5 ± 1.2 m/s
323.09 K, 24930 kPa, x2 = 0.9683 | 534.6 ± 1 m/s
323.09 K, 24940 kPa, x2 = 0.9683 | 534.8 ± 1 m/s
323.09 K, 50140 kPa, x2 = 0.9683 | 752.6 ± 1 m/s
323.09 K, 75000 kPa, x2 = 0.9683 | 890.2 ± 0.9 m/s
323.09 K, 75070 kPa, x2 = 0.9683 | 897.6 ± 0.9 m/s
323.09 K, 100590 kPa, x2 = 0.9683 | 1000.1 ± 0.9 m/s
323.09 K, 125560 kPa, x2 = 0.9683 | 1088.7 ± 1 m/s
323.09 K, 149970 kPa, x2 = 0.9683 | 1164.3 ± 1 m/s
323.09 K, 175330 kPa, x2 = 0.9683 | 1234.8 ± 1.1 m/s
323.09 K, 200000 kPa, x2 = 0.9683 | 1296.5 ± 1.1 m/s
323.1 K, 30220 kPa, x2 = 0.9907 | 590.1 ± 1 m/s
323.1 K, 30230 kPa, x2 = 0.9907 | 589.8 ± 1 m/s
323.1 K, 49980 kPa, x2 = 0.9907 | 747 ± 0.9 m/s
323.1 K, 75170 kPa, x2 = 0.9907 | 886.1 ± 0.9 m/s
323.1 K, 100210 kPa, x2 = 0.9907 | 992.6 ± 0.9 m/s
323.1 K, 124810 kPa, x2 = 0.9907 | 1080.5 ± 1 m/s
323.1 K, 149980 kPa, x2 = 0.9907 | 1157.2 ± 1 m/s
323.1 K, 174620 kPa, x2 = 0.9907 | 1224.1 ± 1.1 m/s
323.1 K, 200340 kPa, x2 = 0.9907 | 1288.4 ± 1.1 m/s
323.13 K, 50000 kPa, x2 = 0.9981 | 745.6 ± 0.9 m/s
323.13 K, 50020 kPa, x2 = 0.9981 | 745.8 ± 0.9 m/s
323.13 K, 75120 kPa, x2 = 0.9981 | 883.4 ± 0.9 m/s
323.13 K, 100030 kPa, x2 = 0.9981 | 988.9 ± 0.9 m/s
323.13 K, 124980 kPa, x2 = 0.9981 | 1076.8 ± 1 m/s
323.13 K, 150000 kPa, x2 = 0.9981 | 1153.2 ± 1 m/s
323.13 K, 175020 kPa, x2 = 0.9981 | 1220.9 ± 1.1 m/s
323.13 K, 200000 kPa, x2 = 0.9981 | 1282.1 ± 1.1 m/s
323.19 K, 15120 kPa, x2 = 0.9376 | 381.2 ± 1.5 m/s
323.19 K, 15160 kPa, x2 = 0.9376 | 381.4 ± 1.5 m/s
323.19 K, 25000 kPa, x2 = 0.9376 | 541.2 ± 1.1 m/s
323.19 K, 50090 kPa, x2 = 0.9376 | 758.5 ± 1 m/s
323.19 K, 75070 kPa, x2 = 0.9376 | 897.6 ± 0.9 m/s
323.19 K, 100040 kPa, x2 = 0.9376 | 1005.2 ± 1 m/s
323.19 K, 125050 kPa, x2 = 0.9376 | 1095.7 ± 1 m/s
323.19 K, 150020 kPa, x2 = 0.9376 | 1173.9 ± 1 m/s
323.19 K, 175000 kPa, x2 = 0.9376 | 1243.4 ± 1.1 m/s
323.19 K, 200420 kPa, x2 = 0.9376 | 1307.5 ± 1.1 m/s
348.09 K, 30390 kPa, x2 = 0.9683 | 504.8 ± 1 m/s
348.09 K, 30400 kPa, x2 = 0.9683 | 504.8 ± 1 m/s
348.09 K, 49950 kPa, x2 = 0.9981 | 667.1 ± 0.8 m/s and 667.2 ± 0.8 m/s
348.09 K, 50030 kPa, x2 = 0.9683 | 675.2 ± 0.9 m/s
348.09 K, 50360 kPa, x2 = 0.9907 | 672.7 ± 0.8 m/s
348.09 K, 50370 kPa, x2 = 0.9907 | 672.7 ± 0.8 m/s
348.09 K, 75020 kPa, x2 = 0.9981 | 813.6 ± 0.9 m/s
348.09 K, 75080 kPa, x2 = 0.9907 | 816.9 ± 0.9 m/s
348.09 K, 75220 kPa, x2 = 0.9683 | 823 ± 0.9 m/s
348.09 K, 99980 kPa, x2 = 0.9981 | 924.6 ± 0.9 m/s
348.09 K, 100580 kPa, x2 = 0.9907 | 931.1 ± 0.9 m/s
348.09 K, 100600 kPa, x2 = 0.9683 | 937.3 ± 0.9 m/s
348.09 K, 124980 kPa, x2 = 0.9981 | 1016.6 ± 0.9 m/s
348.09 K, 125530 kPa, x2 = 0.9683 | 1029 ± 0.9 m/s
348.09 K, 125700 kPa, x2 = 0.9907 | 1023.2 ± 0.9 m/s
348.09 K, 149990 kPa, x2 = 0.9981 | 1095.6 ± 1 m/s
348.09 K, 150440 kPa, x2 = 0.9683 | 1109.4 ± 1 m/s
348.09 K, 150600 kPa, x2 = 0.9907 | 1101.4 ± 1 m/s
348.09 K, 174720 kPa, x2 = 0.9683 | 1178.6 ± 1 m/s
348.09 K, 175000 kPa, x2 = 0.9981 | 1165.6 ± 1 m/s
348.09 K, 175290 kPa, x2 = 0.9907 | 1171.4 ± 1 m/s
348.09 K, 200000 kPa, x2 = 0.9981 | 1228.6 ± 1.1 m/s
348.09 K, 200040 kPa, x2 = 0.9683 | 1243.8 ± 1.1 m/s
348.09 K, 200720 kPa, x2 = 0.9907 | 1236.7 ± 1.1 m/s
348.18 K, 25040 kPa, x2 = 0.9376 | 446.6 ± 1 m/s
348.18 K, 25050 kPa, x2 = 0.9376 | 446.8 ± 1 m/s
348.18 K, 50050 kPa, x2 = 0.9376 | 682.3 ± 1 m/s
348.18 K, 75100 kPa, x2 = 0.9376 | 830.6 ± 0.9 m/s
348.18 K, 100100 kPa, x2 = 0.9376 | 943.7 ± 0.9 m/s
348.18 K, 125020 kPa, x2 = 0.9376 | 1037.1 ± 1 m/s
348.18 K, 149940 kPa, x2 = 0.9376 | 1117.7 ± 1 m/s
348.18 K, 174970 kPa, x2 = 0.9376 | 1189.8 ± 1 m/s
348.18 K, 200000 kPa, x2 = 0.9376 | 1254.3 ± 1.1 m/s
373.1 K, 74950 kPa, x2 = 0.9981 | 754.4 ± 0.8 m/s
373.1 K, 74970 kPa, x2 = 0.9981 | 754.7 ± 0.8 m/s
373.1 K, 100020 kPa, x2 = 0.9981 | 869.7 ± 0.9 m/s
373.1 K, 125030 kPa, x2 = 0.9981 | 963.9 ± 0.9 m/s
373.1 K, 150000 kPa, x2 = 0.9981 | 1044.4 ± 0.9 m/s
373.1 K, 175000 kPa, x2 = 0.9981 | 1115.5 ± 1 m/s
373.1 K, 200000 kPa, x2 = 0.9981 | 1179.3 ± 1 m/s
373.12 K, 25050 kPa, x2 = 0.9376 | 384.7 ± 1 m/s
373.12 K, 25060 kPa, x2 = 0.9376 | 385 ± 1 m/s
373.12 K, 35140 kPa, x2 = 0.9683 | 488.3 ± 1 m/s
373.12 K, 35170 kPa, x2 = 0.9683 | 488.8 ± 1 m/s
373.12 K, 49890 kPa, x2 = 0.9376 | 618.8 ± 1 m/s
373.12 K, 49950 kPa, x2 = 0.9683 | 611.6 ± 0.9 m/s
373.12 K, 75070 kPa, x2 = 0.9683 | 764.5 ± 0.9 m/s
373.12 K, 75090 kPa, x2 = 0.9376 | 772.6 ± 0.9 m/s
373.12 K, 100000 kPa, x2 = 0.9376 | 889.4 ± 0.9 m/s
373.12 K, 100300 kPa, x2 = 0.9683 | 881.3 ± 0.9 m/s
373.12 K, 124970 kPa, x2 = 0.9376 | 985.6 ± 0.9 m/s
373.12 K, 125160 kPa, x2 = 0.9683 | 976.5 ± 0.9 m/s
373.12 K, 149930 kPa, x2 = 0.9376 | 1069 ± 1 m/s
373.12 K, 150000 kPa, x2 = 0.9683 | 1057.9 ± 1 m/s
373.12 K, 174970 kPa, x2 = 0.9376 | 1141.6 ± 1 m/s
373.12 K, 175220 kPa, x2 = 0.9683 | 1131.5 ± 1 m/s
373.12 K, 200010 kPa, x2 = 0.9683 | 1196.4 ± 1 m/s
373.12 K, 200030 kPa, x2 = 0.9376 | 1208.7 ± 1.1 m/s
373.13 K, 50050 kPa, x2 = 0.9907 | 607.3 ± 0.8 m/s
373.13 K, 50070 kPa, x2 = 0.9907 | 607.5 ± 0.8 m/s
373.13 K, 76000 kPa, x2 = 0.9907 | 763.8 ± 0.9 m/s
373.13 K, 100270 kPa, x2 = 0.9907 | 874.4 ± 0.9 m/s
373.13 K, 125410 kPa, x2 = 0.9907 | 970.3 ± 0.9 m/s
373.13 K, 150430 kPa, x2 = 0.9907 | 1051.5 ± 1 m/s
373.13 K, 174660 kPa, x2 = 0.9907 | 1121.2 ± 1 m/s
373.13 K, 200020 kPa, x2 = 0.9907 | 1188.3 ± 1 m/s
